Results on eight compounds are retold here after patent publication US4007282A, “Lowering lipid and sugar levels in the blood with a bis(4-hydroxyphenyl)alkanoic acid or ester thereof” (Hoechst Aktiengesellschaft, priority 1972, dated 1977).

In data set [1] the test system is dietetic-medicamentous hyperlipemia of male rats. Description: Action on the dietetic-medicamentous hyperlipemia of male rats. The data set is classed as in vivo. The following applies: Rattus norvegicus, po, 192 h, 100 mg/kg/day p.o., 8 days, male rats on cholesterol diet. The text has this:
All the animals were fed with a diet food containing 2% of cholesterol, 2% of sodium cholate, 0.3% of methyl-thiouracil, 20% of coco fat and 44% of cane sugar. The serum lipid concentration of the animals treated with the compounds of the invention was compared to that of an untreated control group on the same diet, which diet causes the serum cholesteral concentration to rise within 1 week to about 10 times the initial value, that of the serum triglycerides to 3 times and that of the phospho-lipids in the serum to 4 times the initial value. The lipid phosphorus was determined according to the method of Messrs. Boehringer Mannheim W. Germany. At the same time as the diet was offered, the compounds of the invention were administered once a day to groups of rats, each containing 10 animals, over a period of 8 days by means of an esophageal sound. The change in percentage in the serum lipid concentration as compared to the control group (diet without active substance) is indicated in Table 2.

For the next data set, the system named is normolipemic rats. The experiment in a line: Reduction of serum lipid values in normolipemic rats (8 days oral). Format: in vivo, rat. The note with it: 8 doses, male rats; for serum cholesterol, change in percentage (A: referred to the initial value) / serum triglyceride, change in percentage (A: referred to the initial value): column A; for serum cholesterol, change in percentage (B: referred to the untreated control group) / serum triglyceride, change in percentage (B: referred to the untreated control group): column B. As to the method:
1. Male rats having a normal serum lipid content were treated for eight days with different daily doses mentioned in Table 1. The values given in that Table stand for a change in the serum concentrations of certain lipid classes. The doses administered per os by means of an esophageal sound were 100, 30 and 10 mg/kg/day. Generally, prior to and after the treatment, blood samples were taken and the concentration of cholesterol in the serum was determined according to the method of Lauber and Richterich and that of triglycerides according to the method of Eggstein and Kreutz. In the examples of the following Table 1, the changes in the serum lipid values due to the treatment with the substances of the invention are defined as follows:
a. The changes in percent in the final value of the treated group, referred to the initial value of the treated group, the initial value being 100 percent, and
b. the change in the final value of the treated group, referred to the final value of an accompanying untreated control group, the untreated control group's value being defined as 100 percent. Thus, the value given in columns A is the change in percentage referred to the initial value, whereas the value given in columns B is the change in percentage of the treated group, referred to the untreated control group.

Another data set in a line: in vivo. The following applies: mouse, po.
Data set [2] deals with hypertriglyceridemia induced by carbohydrates in male rats. Description: Action on the hypertriglyceridemia induced by carbohydrates (fructose) in male rats. The data set is classed as in vivo. The note with it: Rattus norvegicus, 72 h, 3-day oral pre-treatment, vs untreated control, read-out: Change in percentage of hypertriglyceridemia induced by carbohydrates.
The mark [3] stands for this setting: read-out: serum cholesterol, change in percentage as compared to the control group.
Setting [4] is: read-out: serum lipid phosphorus, change in percentage as compared to the control group.
The mark [5] stands for this setting: read-out: serum triglyceride, change in percentage as compared to the control group.

Where two headings read alike, the source gives them in different places.

With `CC(C)(C)c1cc(C(C)(CCC(=O)OCCOC(=O)CCC(C)(c2ccc(O)c(C(C)(C)C)c2)c2ccc(O)c(C(C)(C)C)c2)c2ccc(O)c(C(C)(C)C)c2)ccc1O` [Example 18, Bis [4,4-bis(4'hydroxy-3'-tert.-butyl-phenyl)pentanoic acid] glycol ester], the change in vivo at 100 mg/kg in data set [1] (setting [3]) is -36%. The change in vivo at 100 mg/kg in data set [1] (setting [4]) was -37%. The change in vivo at 100 mg/kg in data set [1] (setting [5]) was -19%. For the same compound, in the data set on normolipemic rats (100 mg/kg/day p.o.), the “serum cholesterol, change in percentage (A: referred to the initial value)” value is reported as -48%; the “serum triglyceride, change in percentage (A: referred to the initial value)” value is listed as -51%; the “serum cholesterol, change in percentage (B: referred to the untreated control group)” value is recorded as -33%; the “serum triglyceride, change in percentage (B: referred to the untreated control group)” value is given as -17%. The compound further gave an LD50 in “in vivo” of 4340 mg/kg. Besides, the change in vivo at 30 mg/kg in data set [2] was -34%. In addition, in data set [2] (100 mg/kg), the change in vivo at 100 mg/kg is -46%.
In the case of `CC(C)(C)c1cc(C(C)(CC(=O)OCCOC(=O)CC(C)(c2cc(Br)c(O)c(C(C)(C)C)c2)c2cc(Br)c(O)c(C(C)(C)C)c2)c2cc(Br)c(O)c(C(C)(C)C)c2)cc(Br)c1O` [Example 21, Bis [3,3-bis(4'-hydroxy-3'-tert.-butyl-5'-bromophenyl)butanoic acid] glycol ester], the median lethal dose (LD50) in “in vivo” is 4090 mg/kg.
In the case of `Cc1cc(C(C)(CC(=O)O)c2ccc(O)c(C)c2)ccc1O` [Example 1, 3,3-Bis(4'-hydroxy-3'-methyl-phenyl)butanoic acid], the values for the change in vivo at 100 mg/kg in data set [1] (setting [3]), in data set [1] (setting [4]) and in data set [1] (setting [5]) were -11%, -15% and -18%, respectively.
Consider `CCCCNC(=O)CC(C)(c1ccc(O)c(C(C)(C)C)c1)c1ccc(O)c(C(C)(C)C)c1` [Example 13, 3,3-Bis(4'-hydroxy-3'-tert.-butyl-phenyl)butanoic acid n-butylamide], for which the LD50 in the data set “in vivo” came out at 8000 mg/kg. Moreover, the change in vivo at 30 mg/kg in data set [2] was -17%.
In the case of `CC(C)(C)c1cc(C(C)(CC(=O)OCCOC(=O)CC(C)(c2ccc(O)c(C(C)(C)C)c2)c2ccc(O)c(C(C)(C)C)c2)c2ccc(O)c(C(C)(C)C)c2)ccc1O` [Example 16, Bis [3,3-bis(4'-hydroxy-3'-tert.-butyl-phenyl)butanoic acid] glycol ester], in the data set on normolipemic rats (30 mg/kg/day p.o.), the “serum cholesterol, change in percentage (A: referred to the initial value)” value is -10%; the “serum cholesterol, change in percentage (B: referred to the untreated control group)” value is given as -15%; the “serum triglyceride, change in percentage (B: referred to the untreated control group)” value is reported as -32%. Further, in the data set on normolipemic rats (100 mg/kg/day p.o.), the “serum cholesterol, change in percentage (A: referred to the initial value)” value is -20%; the “serum triglyceride, change in percentage (A: referred to the initial value)” value is recorded as -27%; the “serum cholesterol, change in percentage (B: referred to the untreated control group)” value is -21%; the “serum triglyceride, change in percentage (B: referred to the untreated control group)” value is -26%. The change in vivo at 30 mg/kg in data set [2] is -24%.
In the case of `CC(C)(C)c1cc(C(C)(CCC(=O)O)c2ccc(O)c(C(C)(C)C)c2)ccc1O` [Example 14, 4,4-Bis(4'-hydroxy-3'-tert.-butyl-phenyl)pentanoic acid], the change in vivo at 100 mg/kg in data set [1] (setting [3]) is -36%; in data set [1] (setting [4]), -25%; in data set [1] (setting [5]), -13%. The same compound registered an LD50 in “in vivo” of 4000 mg/kg.
`CC(C)(C)c1cc(C(C)(CC(=O)O)c2ccc(O)c(C(C)(C)C)c2)ccc1O` [Example 2, 3,3-Bis(4'-hydroxy-3'-tert.-butyl-phenyl)butanoic acid]: the change in vivo at 100 mg/kg in data set [1] (setting [3]) was -19%; in data set [1] (setting [4]), -9%; in data set [1] (setting [5]), -13%. In the data set “in vivo”, this compound gave an LD50 of 2000 mg/kg. For the same compound, the change in vivo at 30 mg/kg in data set [2] was -63%.
On to `CC(C)(C)c1cc(C(C(=O)O)c2ccc(O)c(C(C)(C)C)c2)ccc1O` [Example 4, Bis(4'-hydroxy-3'-tert.-butyl-phenyl)ethanoic acid], for which the change in vivo at 100 mg/kg in data set [1] (setting [3]) was -29%; in data set [1] (setting [4]), -25%; in data set [1] (setting [5]), -21%.

A word on the LD50: it is the dose expected to kill half of the subjects tested.
